Results taken from US12459891B2, “1-[1-(4-benzyloxy-3,5-difluoro-benzoyl)-4-fluoro-pyrrolidine-2-carbonyl]-pyrrolidine-2-carbonitrile” (ACCURE THERAPEUTICS, S.L., priority 2020, dated 2025).
Like-named read-outs stand apart in the source and are kept apart here.

Columns and labels:
Caco-2 cells = assay: Caco-2 permeability assay (apical to basal); type: in vitro ADME, human; conditions: 50 μM, 2 hours at 37° C.
Excerpt: Caco-2 cells are widely used as an in vitro model for prediciting human drug absorption. The Caco-2 cell line is derived from human colorectal carcinoma, and when cultured, the cells spontaneously differentiate into monolayers of polarized enterocytes.
Experiments were done using the CacoReay permeability kit (ReadyCell, Barcelona, Spain).
On the same week of the reception of the kit, the shipping medium of the cells was liquefied according to user's manual provided with the kit, after which the shipping medium was replaced with fresh Dulbecco's Modified Eagle's Medium (DMEM, low-glucose).
Three days later, equivalent to day 20 of cell culture, the quality of the barrier system and the presence of tight junctions between the cells was checked by measuring the trans endothelial electrical resistance (TEER) of the cell barrier. […]
For the transport experiments (apical to basal), the cells were incubated with the solutions containing the compounds for 2 hours at 37° C. Afterwards, the content of the compartments was recovered and analyzed by HPLC (Column C18 Sunfire 100 mm×4.6 mm, […], 100 Å, Waters; Flow rate 1 mL/min; Gradient 0-100% B in 8 min A=0.045% Trifluoracetic acid in H2O and B 0.036% Trifluoracetic acid in acetonitrile, detection at 220 nm). […]
In the Caco-2 permeability assay, the percentage of transport (T %) for the compounds was calculated according to the following equation: […]

[1] = In vivo brain exposure (plasma and brain AUC); conditions: male, mouse, mice, 5 mg/kg, read-out: % BBB (brain exposure, plasma and brain AUC ratio)
Procedure: For each compound, twenty-four adult male mice, aged 7-8 weeks on the day of experiment, were used for the study and were allocated randomly between the groups. The experiments were performed on 3 groups of animals as described in the table below:
After compound administration, terminal blood was performed at several time points after intraperitoneal (Comp. ex. 3) or oral administration (Ex. 1).
After transcardiac perfusion with phosphate buffered saline, brains were also collected. All the samples were stored at −80° C. until bioanalysis.
The plasma samples were thawed at room temperature (RT), and the samples were protein precipitated with a 2-fold volume of acetonitrile, containing 20 ng/mL phenacetin as an internal standard. The samples were mixed throughout, followed by centrifugation for 20 min at 2,200×g. The supernatants were diluted 1:1 with 150 mM phosphate buffered saline (pH 7.4) and pipetted onto UPLC 96-well plates to wait for the analysis. […]
Levels of the compounds of Comp. Ex. 3 and example 1 were quantified from mouse plasma and brain. Samples were analyzed using a fit-on-purpose bioanalytical method using a UPLC/QE-Orbitrap-Mass Spectroscopy.
The concentration (ng/mL) of the compounds along time was plotted and the area under the curve (AUC) in plasma and brain tissue was calculated using Graphpad Prism™ 5.0. The plasma to brain ratio was calculated as follows: […]

MK-801-treated mice = assay: Novel object recognition (NOR) task, MK-801-induced cognitive deficit; type: in vivo, male C57/Bl6 mice; conditions: for % discrimination index: mean ± s.e.m.
[2] = compound 5 mg/kg intraperitoneal 35 min before test + MK 801 0.2 mg/kg sc
[3] = compound 5 mg/kg oral (po) 35 min before test + MK 801 0.2 mg/kg sc

| % T (percentage of transport), Caco-2 (Caco-2 cells) [%] | Kp ([1]; IP) | Kp ([1]; PO) | Structure (SMILES) | % discrimination index (MK-801-treated mice; [2]) [%] | % discrimination index (MK-801-treated mice; [3]) [%] | Efficacy after oral administration (in words) (MK-801-treated mice; oral administration) |
| --- | --- | --- | --- | --- | --- | --- |
| 5.7 | 0.21 | – | COc1cc(C(=O)N2CC(F)(F)C[C@H]2C(=O)N2CCC[C@H]2C#N)cc(OC)c1OCc1ccccc1 [Comp Ex. 3, (S)-1-((2S)-1-(4-(benzyloxy)-3,5-dimethoxybenzoyl)-4,4-difluoropyrrolidine-2-carbonyl)pyrrolidine-2-carbonitrile] | 42.7 ± 3.3 | 20.1 ± 2.9 | no efficacy |
| 45 | – | 0.253 | N#C[C@@H]1CCCN1C(=O)[C@@H]1C[C@@H](F)CN1C(=O)c1cc(F)c(OCc2ccccc2)c(F)c1 [Example 1, (S)-1-((2S,4R)-1-(4-(benzyloxy)-3,5-difluorobenzoyl)-4-fluoropyrrolidine-2-carbonyl)pyrrolidine-2-carbonitrile] | 30.3 ± 3.9 | 42.1 ± 5.1 | – |
